One series has as its system S. aureus 29213. The experiment in a line: MIC, broth dilution method, S. aureus. It counts as cell-based. The settings on record: Staphylococcus aureus, 29213; Gram-positive bacteria; in vitro, broth dilution; read-out: MIC S. aureus 29213. The protocol:
(§1) Minimum Inhibition Concentration (MIC), Broth Dilution Method:
(§2) The compounds of the present invention were tested against an assortment of Gram positive and Gram negative organisms using standard microtitration techniques well known to those skilled in the art. Cultures of bacteria are initially brought up from the freezer by streaking a loopful onto agar plates under the appropriate conditions. For instance bacterial stocks are streaked onto chocolate agar and then incubated for 18 hours at 35-37° C. in a 5% CO2 incubator. Five to ten colonies are picked from the chocolate agar plate for subculture to Brain-Heart infusion (BHI) broth, Mueller Hinton broth, or BHI containing 4% serum and incubated under the appropriate conditions. The ability of the test compound to act as an antimicrobial is determined by the ability to inhibit bacterial growth in vitro. The optical density of the culture of organisms in the presence of an active compound is compared to the optical density of the same organism untreated. The activity of the compounds is described as either negative or the lowest concentration inhibiting growth (Minimum Inhibitory Concentration [MIC]).

A further series deals with S. pneumoniae 11733. The experiment in a line: MIC, broth dilution method, S. pneumoniae. It is filed as cell-based. The settings on record: Streptococcus pneumoniae, 11733; Gram-positive bacteria; in vitro, broth dilution; read-out: MIC S. pneumoniae 11733. On the procedure: as §1, §2
For the next series, the system named is H. influenzae 43095. The experiment in a line: MIC, broth dilution method, H. influenzae. It counts as cell-based. The following applies: Haemophilus influenzae, 43095; Gram-negative bacteria; in vitro, broth dilution; read-out: MIC H. influenzae 43095. On the procedure:
as §1, §2

The subject of the next series is E. coli 43888. The experiment in a line: MIC, broth dilution method, E. coli. It counts as cell-based. The settings on record: Escherichia coli, 43888; Gram-negative bacteria; in vitro, broth dilution; read-out: MIC E. coli 43888. The protocol:
as §1, §2

Converted amounts (≈) assume the structure as drawn.

In the case of `Cc1ccc(Oc2ccc(C3NC(C(=O)O)CS3)cc2C#N)c(O)c1` (centres unmarked) [Example 9, 2-[3-Cyano-4-(2-hydroxy-4-methyl-phenoxy)-phenyl]-thiazolidine-4-carboxylic acid], the melting point lay in the range of 150 to 152 °C. Moreover, the MIC in the series with S. aureus 29213 is 2 µg/mL (≈ 5.61 µM). The MIC in the series with S. pneumoniae 11733 came to 4 µg/mL (≈ 11.2 µM). In addition, the MIC with H. influenzae 43095 amounted to 4 µg/mL (≈ 11.2 µM). Further, the MIC in the series on E. coli 43888 is 4 µg/mL (≈ 11.2 µM).

(Values after patent US20060211697A1, “2-(2 Or 4-substituted aryloxy)-phenol derivatives as antibacterial agents” (priority 2004, published 2006).)
